Test results: US7862815B2, “Methods for inhibiting angiogenesis with inhibitors of proadrenomedullin N-terminal 20 peptide (PAMP)” (The United States of America as represented by the …, priority 2002, dated 2011)

Legend:
Format in all cases: cell-based
human endothelial cells [1] = test: Migration assay (ChemoTx chamber); settings: for increase in migration: 10^−11 M, four hour incubation, p<0.001; for concentration of peak of migration stimulation: lower and higher concentrations less efficient
Procedure: Cell motility was measured as described (Martinez et al., J. Natl. Cancer Inst., 21; 94(16):1226-37, 2002). Test peptides were placed at various concentrations at the bottom of a ChemoTx chamber (NeuroProbe Inc.). The intermediate membrane was coated with 10 μg/ml fibronectin, and in the upper chamber 5.0×10^5 human endothelial cells were added. After a four hour incubation at 37° C., the membrane was fixed and stained (Protocol Hema3, Biochemical Sciences Inc.). The cells trapped in the porous membrane were photographed through a 25× microscope objective and the number of cells per photographic field was counted.

human endothelial cells [2] = test: Real-time PCR quantification of gene expression; settings: for expression of the AM/PAMP gene: addition of 10 nM peptide
Procedure: Human endothelial cells were cultured in T-75 flasks at a density of 2.5×10^6 cells/well. After the cells were attached to the bottom of the plate, they were treated with 10 nM PAMP in serum-free medium for 24 hours. At the end of this exposure, the cells were washed once with PBS, scraped from the plate and their total RNA was extracted using the RNeasy Mini Kit from Qiagen and reverse transcribed using the SuperScript First-Strand Synthesis system (Invitrogen). Quantification of gene expression was performed by real-time PCR as described (Martinez et al., J. Endocrinol. 176, 95-102, 2003). The PCR reaction was run in an Opticon cycler (MJ Research) using Sybr Green PCR master mix (Applied Biosystems). Thermocycling was performed in a final volume of 25 μl containing 2 μl of cDNA (1:10 dilution) and 400 nM of primers (see below). All targets were amplified in triplicates in the same run as the house-keeping gene, using the following cycle scheme: after initial denaturation of the samples at 95° C. for 2 minutes, 46 cycles of 95° C. for 30 seconds, 60° C. for 30 seconds, and 72° C. for 30 seconds were performed.
Fluorescence was measured in every cycle and mRNA levels were normalized by the 18S RNA values in all samples. A melting curve was run after PCR by increasing temperature from 50° C. to 96° C. (0.5° C. increments). A single peak was obtained for all amplicons, thus confirming the specificity of the reaction.

[3] = tested on: Human dermal microvascular endothelial cells; test: Calcium measurements (ATP-induced calcium flux); settings: 10 nM PAMP, 1 mM ATP
Procedure: Human dermal microvascular endothelial cells were obtained from Cell Applications, Inc. and cultured in 96-well plates at 1.0×10^5 cells per well. The cells were loaded for 60 minutes at room temperature with the fluorescent dye FLIPR (Molecular Devices) and then transferred to the FlexStation II (Molecular Devices) for analysis. The test compounds were prepared in another plate at a concentration of 5× and were added to the proper wells by the robotic arm of the FlexStation II. Fluorescence was measured every five seconds in each well and recorded. One mM ATP (Sigma) was used as a calcium agonist (Lau et al., Life Sci. 73, 20 19-2028, 2003).

human endothelial cells [4] = test: Cord formation assay on matrigel; settings: overnight incubation on matrigel, FIG. 6C
Procedure: Human endothelial cells were seeded at 2.0×10^5 cells per well over a solid layer of matrigel covering the bottom of a 24-well plate in the presence or absence of the test peptides as described (Nam et al., Phytother. Res. 17, 107-111). After an overnight incubation, the tubular structures were photographed (three pictures per well) and the number of knots per photographic field were counted as a measure of lattice complexity.

## Adrenomedullin [AM]
Human endothelial cells [1]; on the concentration range tested
  effect on cell migration: did not modify cell migration significantly
Human endothelial cells [2]
  expression of the AM/PAMP gene: indistinguishable from the untreated controls

## proadrenomedullin N-terminal 20 peptide (ARLDVASEFRKKWNKWALSR; listed as Homo sapiens) [PAMP, 20 amino-acid molecule originating from the post-translational processing of pre-proadrenomedullin; synthetic human, purchased from Bachem]
[3]
  effect on ATP-induced calcium response: greatly reduced
Human endothelial cells [1]
  increase in migration: four-fold
  concentration of peak of migration stimulation: 10^−11 M
Human endothelial cells [4]
  efficiency in inducing cord formation (knots per field): modest effect
Human endothelial cells [2]; 10 nM PAMP, 24 hours
  expression of PDGF A mRNA: no significant modification
  expression of PDGF B mRNA: no significant modification
  expression of PDGF C mRNA: elevating the expression
  expression of VEGF mRNA: elevating the expression
  expression of bFGF mRNA: elevating the expression
Human endothelial cells [2]; 10 nM PAMP, 24 hours, normalized by 18S RNA
  expression of AM gene mRNA: about 50 % over basal levels

## vascular endothelial growth factor [VEGF]
Human endothelial cells [1]
  increase in migration: four-fold
  concentration of peak of migration stimulation: 10^−11 M
Human endothelial cells [1]; concentrations lower than 10^−11 M
  cell migration at other concentrations: also induced a significant increase in cell migration
Human endothelial cells [4]
  efficiency in inducing cord formation (knots per field): most efficient
Human endothelial cells [2]
  expression of the AM/PAMP gene: indistinguishable from the untreated controls
